Assay results as given in the supplement of paper PMC10307832.

Key:
Assay in all cases: relative viability (nuclei count vs DMSO), 5 days (fraction); higher = more cells survive
Salubrinal + OSI-027 = compound: O=C(/C=C/c1ccccc1)NC(NC(=S)Nc1cccc2cccnc12)C(Cl)(Cl)Cl [Salubrinal] + COc1cccc2cc(-c3nc([C@H]4CC[C@H](C(=O)O)CC4)n4ncnc(N)c34)[nH]c12 [OSI-027] (partner 0.5 µM)
Summary of the method: (§1)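 Lung cancer cell lines in 1536-well plates got either a single drug or a fixed anchor-drug dose together with five library-drug doses (not always all listed) in √10 steps, by pin tool, on the day after seeding. Nuclei were counted after 5 days, and relative viability is the treated-to-vehicle ratio of nuclei counts. Values are medians of duplicate plates.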

[1] = compound: Cc1ccc2nc(NCCN)c3ncc(C)n3c2c1 + C[C@@H](Oc1cc(-c2cnn(C3CCNCC3)c2)cnc1N)c1c(Cl)ccc(F)c1Cl [Crizotinib] (partner 1 µM)
Summary of the method: as §1

[2] = compound: Cc1ccc2nc(NCCN)c3ncc(C)n3c2c1 + Nc1nc2[nH]cc(CCc3ccc(C(=O)N[C@@H](CCC(=O)O)C(=O)O)cc3)c2c(=O)[nH]1 [Pemetrexed] (partner 0.2 µM)
Summary of the method: as §1

[3] = compound: Cc1ccc2nc(NCCN)c3ncc(C)n3c2c1 + CCNC(=O)c1noc(-c2cc(C(C)C)c(O)cc2O)c1-c1ccc(CN2CCOCC2)cc1 [Luminespib] (partner 0.01 µM)
Summary of the method: as §1

Cell Line	relative viability (Salubrinal + OSI-027; first compound 0.08 µM)	relative viability (Salubrinal + OSI-027; first compound 0.253 µM)	relative viability (Salubrinal + OSI-027; first compound 0.8 µM)	relative viability (Salubrinal + OSI-027; first compound 2.53 µM)	relative viability (Salubrinal + OSI-027; first compound 8 µM)	relative viability ([1]; first compound 0.04 µM)	relative viability ([1]; first compound 0.1265 µM)	relative viability ([1]; first compound 0.4 µM)	relative viability ([1]; first compound 1.265 µM)	relative viability ([1]; first compound 4 µM)	relative viability ([2]; first compound 0.04 µM)	relative viability ([2]; first compound 0.1265 µM)	relative viability ([2]; first compound 0.4 µM)	relative viability ([2]; first compound 1.265 µM)	relative viability ([2]; first compound 4 µM)	relative viability ([3]; first compound 0.04 µM)	relative viability ([3]; first compound 0.1265 µM)	relative viability ([3]; first compound 0.4 µM)	relative viability ([3]; first compound 1.265 µM)	relative viability ([3]; first compound 4 µM)
NCI-H647	0.76	0.671	0.6	0.638	0.604	1.29	1.03	1.12	0.93	0.852	0.179	0.158	0.243	0.221	0.243	0.163	0.187	0.155	0.136	0.188
NCI-H1755	0.748	0.803	0.795	0.696	0.633	0.94	0.891	0.857	0.935	0.863	0.446	0.408	0.411	0.437	0.456	0.42	0.359	0.339	0.288	0.48
NCI-H3122	1.21	0.885	1.32	1.03	1.07	0.291	0.304	0.293	0.286	0.318	0.199	0.192	0.192	0.218	0.2	0.101	0.11	0.0776	0.0857	0.0976
NCI-H358	0.83	0.74	0.848	0.582	0.672	0.613	0.594	0.691	0.583	0.487	0.185	0.165	0.166	0.178	0.192	0.309	0.373	0.236	0.326	0.313
PC-14	0.966	0.822	0.98	0.798	0.616	1.08	0.862	0.864	0.901	0.892	0.135	0.14	0.157	0.15	0.151	0.135	0.114	0.179	0.151	0.18
SK-MES-1	0.623	0.629	0.675	0.448	0.445	0.924	0.939	0.911	1.03	0.912	1.04	0.903	0.9	1.05	0.92	0.835	0.791	0.74	0.772	0.74
NCI-H2347	0.289	0.308	0.379	0.349	0.422	0.653	0.673	0.615	0.617	0.625	0.447	0.479	0.454	0.412	0.424	1.14	1.3	0.362	0.248	0.356
NCI-H2228	0.5	0.468	0.596	0.558	0.547	0.51	0.436	0.53	0.346	0.405	0.316	0.292	0.357	0.361	0.419	0.147	0.149	0.181	0.145	0.149
NCI-H1563	0.784	0.751	0.74	0.741	0.695	0.865	0.835	0.906	0.918	0.88	0.861	0.78	0.877	0.718	0.705	0.491	0.509	0.517	0.466	0.485
EKVX	0.701	0.641	0.657	0.454	0.673	0.921	0.794	1.02	1.05	0.903	0.394	0.404	0.387	0.36	0.313	0.955	0.842	0.886	0.843	0.93
HOP-62	0.819	0.765	1.11	0.849	0.714	1.01	0.895	0.811	0.812	0.835	0.298	0.303	0.348	0.352	0.339	0.916	0.941	0.648	0.965	0.913
NCI-H2126	0.7	0.721	0.725	0.695	0.659	1.04	0.999	1.09	1	1.03	0.851	0.699	0.659	0.708	0.59	0.998	0.867	0.917	0.89	0.832
SW 1573	0.763	0.622	0.589	0.565	0.493	0.924	0.792	0.704	0.895	0.659	1.01	0.828	0.912	0.992	0.611	0.287	0.185	0.204	0.151	0.106
NCI-H1944	0.384	0.389	0.483	0.387	0.406	1.05	1.18	1.09	1.19	1.09	0.687	0.586	0.582	0.555	0.587	0.735	0.735	0.663	0.817	0.844
EPLC-272H	0.297	0.286	0.293	0.258	0.249	0.948	0.846	1.06	0.948	0.91	0.278	0.358	0.488	0.281	0.414	0.272	0.253	0.196	0.299	0.159
PC-3 [JPC-3]	0.7	0.538	0.751	0.913	0.729	0.973	0.992	0.974	0.947	0.966	1.21	1.03	1.1	0.987	1.09	0.733	0.71	0.672	0.671	0.628
